Assays:
[1] = test system: rumen fluid; test: In vitro rumen fluid incubation (18 h): volatile fatty acids and methane inhibition; type: cell-based, sheep; settings: 39° C.; for C2 (acetate), Ratio Treated to Control / C3 (propionate), Ratio Treated to Control / C4 (butyrate), Ratio Treated to Control / Total VFA, Ratio Treated to Control: 50.0 ppm, pH 7.0; for inhibition at 50 ppm: Ovis aries, vs negative control
Protocol: Below is set forth the procedure followed for testing the compounds of the present invention in vitro. For these studies, rumen fistulated sheep were fed a concentrate diet which constituted 3 parts chopped corn and cob and 1 part alfalfa pellets.
1. Rumen fluid was removed from a fistulated sheep and strained through 4 layers of cheese cloth to remove large feed particles.
2. One part rumen fluid was added to 3 parts of modified McDougal's Artificial Saliva, the pH was adjusted to 7.0 and the saliva solution was prewarmed to 39° C. in a water bath and gassed with CO2.
(a) Modified McDougal Artificial Saliva composition:
To prepare (a), (i) 9.8 g NaHCO3, 11.7 g KHCO3, 5.1 g NaH2 PO4 and 4.08 g KH2 PO4 were diluted with two (2) liters of distilled H2 O; (ii) 20 mL of 100X salt solution was diluted to 1.33 l with tap H2 O; and (iii) mix (i) with (ii) to prepare the modified McDougal Artificial Saliva.
3. Add 0.01 g concentrate feed/1 mL of buffered rumen fluid (the buffered rumen fluid with concentrate should be stirred at all times to prevent the concentrate from settling).
4. Dispense 20 mL of buffered rumen fluid into 30 mL serum bottles that are being gassed with CO2. (A manifold that gases 12 bottles at a time was used.) The bottles should be in a 39° C. H2 O bath.
5. The test compounds, i.e., the compounds of the present invention, were first added to the bottles. After the addition of the buffered rumen fluid to all 12 bottles, the gassing cannulae were quickly removed and a butyl rubber stopper was inserted in each bottle. An aluminum seal was then placed on each bottle and crimped tight.
6. The sealed bottles were removed from the water bath, shaken and placed in a 39° C. incubator for 18 hours.
7. After the 18-hour incubation, the bottles were removed from the incubator and the head space gas was analyzed using a gas partitioner.
8. Four mL of rumen fluid was removed from each bottle for volatile fatty acid (VFA) analysis.
(a) The 4 mL sample was added to a centrifuge tube to which had previously been added 0.04 mL of 50 percent H2 SO4 and 1 mL 2-ethylbutyric acid (concentration 2 mL of 2-ethylbutyric acid/500 mL H2 O v/v).
(b) The mixture from (a) was centrifuged at 10000 xg for 20 minutes.
(c) The supernatant was removed and analyzed by gas-liquid chromatography. The above procedures were followed in all trials for testing the compounds of the present invention.

[2] = test system: rumen; test: In vivo rumen VFA trial in rumen fistulated sheep (90 days); settings: 90 day trial average
Text: Eight rumen fistulated sheep were used as test animals. Two sheep were alotted to each of three treatments and a control for each test. Group I was always the control group in each of the different trials. Groups II through IV had varying concentrations of compounds of the present invention added to the animals' feed. The feed ration in each trial constituted 3 parts chopped corn and cob and 1 part alfalfa pellets. Each sheep was offered 800 g daily of the feed in two equal portions. The particular compound and vitamin premix were mixed with chopped corn and cob. Any feed refusals were weighed back before each feeding and discarded. To prevent any mold growth, the feed was stored under refrigeration.
All animals in the various treatment groups were sampled for VFA's twice a week. Equal volumes of rumen fluid from each animal within a treatment were pooled for treatment VFA analysis. Fluid from individual animals was also analyzed for VFA. Individual animal VFA's within a treatment were averaged. This value was then averaged with pooled treatment VFA yielding the final treatment VFA value. All ratios and statistics were calculated using this final value. VFA's were calculated as the ratio treated to its respective pretreatment value. Each of the trials lasted for 90 days.

[3] = test system: propionate production in the rumen; settings: oral administration to ruminants, Raun patents; cited from earlier work
[4] = Table III, Group II, level 0.05 % of feed (approx. 60 ppm in rumen)
[5] = Table III, Group III, level 0.075 % of feed
[6] = Table III, Group IV, level 0.025 % of feed
[7] = Table II, Group II, level 0.01 % of feed
[8] = Table II, Group III, level 0.05 % of feed (approx. 60 ppm in rumen)
[9] = Table II, Group IV, level 0.025 % of feed

Row | Compound | C2 (acetate), Ratio Treated to Control [1] | C3 (propionate), Ratio Treated to Control [1] | C4 (butyrate), Ratio Treated to Control [1] | Total VFA, Ratio Treated to Control [1] | inhibition at 50 ppm [1] [%] | propionate production (in words) [3] | further results
1 | O=C(CCl)NCCc1nnn[nH]1 | 0.91 | 1.16 | 1.05 | 1.02 | 4.9 | – | –
2 | Cc1ccc(S(=O)(=O)OCCc2nnn[nH]2)cc1 | 0.92 | 1.23 | 0.95 | 1.07 | 8 | – | –
3 | CS(=O)(=O)NCCC#N [CNCH2 CH2 NHSO2 CH3] | 0.7 | 1.58 | 1.13 | 0.97 | 73.4 | – | –
4 | BrCCc1nnn[nH]1 [TCH2 CH2 Br] | 0.73 | 1.44 | 1.25 | 0.91 | 91.3 | – | –
5 | ClCCc1nnn[nH]1 [TCH2 CH2 Cl, 5-(2-Chloroethyl)Tetrazole] | 0.76 | 1.48 | 0.92 | 1.03 | 74.6 | – | C2 (acetate), Ratio of Treatment VFA to Pretreatment VFA [2, 4]: 0.97; C3 (propionate), Ratio of Treatment VFA to Pretreatment VFA [2, 4]: 1.06; C4 (butyrate), Ratio of Treatment VFA to Pretreatment VFA [2, 4]: 1.11; Total VFA, Ratio of Treatment VFA to Pretreatment VFA [2, 4]: 0.88; C2 (acetate), Ratio of Treatment VFA to Pretreatment VFA [2, 5]: 0.92; C3 (propionate), Ratio of Treatment VFA to Pretreatment VFA [2, 5]: 1.24; C4 (butyrate), Ratio of Treatment VFA to Pretreatment VFA [2, 5]: 1.05; Total VFA, Ratio of Treatment VFA to Pretreatment VFA [2, 5]: 0.89; C2 (acetate), Ratio of Treatment VFA to Pretreatment VFA [2, 6]: 0.97; C3 (propionate), Ratio of Treatment VFA to Pretreatment VFA [2, 6]: 1.00; C4 (butyrate), Ratio of Treatment VFA to Pretreatment VFA [2, 6]: 1.20; Total VFA, Ratio of Treatment VFA to Pretreatment VFA [2, 6]: 1.05
6 | CS(=O)(=O)NCCc1nnn[nH]1 [TCH2 CH2 NHSO2 CH3] | 0.99 | 1.04 | 0.99 | 1.02 | 0.7 | – | –
7 | ClCc1nnn[nH]1 [TCH2 Cl, 5-Chloromethyltetrazole] | 0.74 | 1.49 | 0.95 | 0.96 | 96.8 | – | C2 (acetate), Ratio of Treatment VFA to Pretreatment VFA [2, 7]: 1.01; C3 (propionate), Ratio of Treatment VFA to Pretreatment VFA [2, 7]: 0.98; C4 (butyrate), Ratio of Treatment VFA to Pretreatment VFA [2, 7]: 1.02; Total VFA, Ratio of Treatment VFA to Pretreatment VFA [2, 7]: 0.96; C2 (acetate), Ratio of Treatment VFA to Pretreatment VFA [2, 8]: 0.97; C3 (propionate), Ratio of Treatment VFA to Pretreatment VFA [2, 8]: 1.05; C4 (butyrate), Ratio of Treatment VFA to Pretreatment VFA [2, 8]: 1.04; Total VFA, Ratio of Treatment VFA to Pretreatment VFA [2, 8]: 0.88; C2 (acetate), Ratio of Treatment VFA to Pretreatment VFA [2, 9]: 0.96; C3 (propionate), Ratio of Treatment VFA to Pretreatment VFA [2, 9]: 1.10; C4 (butyrate), Ratio of Treatment VFA to Pretreatment VFA [2, 9]: 1.05; Total VFA, Ratio of Treatment VFA to Pretreatment VFA [2, 9]: 0.93
8 | CO[C@H]1CC[C@@H](O[C@H]2C[C@H]([C@]3(C)CC[C@]4(C[C@H](O)[C@@H](C)[C@@H]([C@@H](C)/C=C(\C)C(=O)[C@H](C)C[C@H](C)C(=O)O)O4)O3)O[C@]3(O[C@@H]([C@H]4O[C@@](O)(CO)[C@H](C)C[C@@H]4C)C[C@@H]3C)[C@@H]2C)O[C@@H]1C [dianemycin] | – | – | – | – | – | propionate production could be increased | –
9 | CC[C@@]1([C@@H]2O[C@@H]([C@H]3O[C@@](O)(CO)[C@H](C)C[C@@H]3C)C[C@@H]2C)CC[C@H]([C@]2(C)CC[C@]3(C[C@H](O)[C@@H](C)[C@@H]([C@@H](C)[C@@H](OC)[C@H](C)C(=O)O)O3)O2)O1 [monensin] | – | – | – | – | – | propionate production could be increased | –
10 | C=C(NC(=O)C(=C)NC(=O)c1csc(C2=N[C@@H]3c4csc(n4)[C@H]4NC(=O)c5csc(n5)[C@H]([C@](C)(O)[C@@H](C)O)NC(=O)[C@H]5CSC(=N5)/C(=C/C)NC(=O)[C@H]([C@@H](C)O)NC(=O)c5csc(n5)[C@]3(CC2)NC(=O)[C@H](C)NC(=O)C(=C)NC(=O)[C@H](C)NC(=O)[C@H]([C@@H](C)CC)N[C@@H]2C=Cc3c([C@H](C)O)cc(nc3[C@H]2O)C(=O)O[C@@H]4C)n1)C(N)=O [thiostrepton] | – | – | – | – | – | propionate production could be increased | –
